Blank lines part the entries; values can stand above or below the compound they belong to.
Tests used:
Carbonic Anhydrase (CA) = experiment: CBS binding to carbonic anhydrase after blocking with 5% trehalose (PWV shift); conditions: 5% trehalose block
Procedure: FIG. 5 represents the normalized peak wavelength value (PWV) resulting from CBS binding to carbonic anhydrase after blocking with 5% trehalose.
The CA surface was blocked with 5% trehalose. Trehalose blocking of non-specific interactions of CBS to the surface enabled detection of specific binding to CA below 1 μM.

[1] = Sugars binding to amine surfaces (PWV change); conditions: for PWV change after over night incubation and wash: stored overnight in water
Procedure: Lactose and glyceraldehyde solutions in water at 5% and 2.5% respectively were added to a BIND™ sensor plate functionalized with amine functional groups for 2 hrs. The plate was then washed thoroughly with water and stored overnight in water. The plates were then washed again with water and the binding of sugars was measured.

[2] = SA binding to the aldehyde surface (PWV shift)
Procedure: (§1) 40 μl of 5% Trehalose solution was added to SA immobilized wells (0.05 mg/ml SA and 0.2 mg/ml SA) and control wells (Trehalose alone) and were allowed to bind for 2 hrs. The plates were washed and the peak wavelength value (PWV) shift was measured (See Table 6 and FIG. 2). The SA shift was the PWV of SA binding to the aldehyde surface, while the blocker shift was the PWV shift obtained after the blocker was allowed to bind to the unreacted aldehyde functional groups on the SA-immobilized aldehyde surface. The unreacted aldehydes are more easily accessed by the small blocker molecule than the bigger SA molecules. The blocker shift is lower with higher SA concentration likely because there are less aldehydes available for binding the blocker in these wells.

SA surface [3] = target: T1, SA surface (Streptomyces avidinii, UniProt P22629); experiment: Biotin binding to SA surface in FBS, with and without trehalose blocking; conditions: for shift from biotin binding to SA surface: SA shift 5.8 nm
Procedure: In order to test the affect of trehalose on specific protein-protein interactions, the ability of trehalose to interfere with the ability of biotin to bind to a SA surface was measured. Biotin in either 10% or 100% FBS was allowed to react with the SA surface with the 5.8 nm PWV shift, and the resulting shift measured (see Table 8). The theoretical shift resulting from Biotin binding, shown in parenthesis, was calculated from the following formula: (Mol. Wt. of Biotin/Mol. Wt. of SA)×# of binding sites on SA for biotin×SA shift, or (244/55000)×4 (binding sites)×5.8 nm (SA shift).

SA surface [4] = target: T1, SA surface; experiment: Trehalose efficacy to reduce non-specific FBS binding to the SA surface; conditions: for FBS 10% binding to SA surface (shift normalized to trehalose shift) / FBS 100% binding to SA surface (shift normalized to trehalose shift): blocked with 5% Trehalose
Procedure: In order to test the efficacy of trehalose to reduce non-specific binding, the ability of trehalose to reduce Fetal Bovine Serum (FBS) binding to the SA surface was measured. 10% and 100% commercially available FBS was allowed to react with either the SA surface with the 2 nm PWV shift or the 5.8 nm PWV shift, and the resulting shift measured (see Table 7 and FIG. 3). The shifts were normalized to the trehalose shift by considering the resulting signal after the surface has been blocked to be zero, or baseline. The change in binding due to the protein present in FBS is then measured and reported as non-specific binding.

[5] = Blocking of streptavidin (SA) surface with 5% trehalose (blocker PWV shift); assay type: binding; conditions: 2 hrs
Procedure: as §1

Compound: OC[C@H]1O[C@H](O[C@H]2O[C@H](CO)[C@@H](O)[C@H](O)[C@H]2O)[C@H](O)[C@@H](O)[C@@H]1O [Trehalose]
interference with biotin binding to SA (SA surface [3]): does not seem to interfere with biotin binding
effect on non-specific binding of proteins from FBS to the SA surface (SA surface [4]): reduced the non-specific binding of proteins from FBS to the SA surface
FBS 10% binding to SA surface (shift normalized to trehalose shift) (SA surface [4]; SA shift 2 nm surface): 2.41 nm
FBS 100% binding to SA surface (shift normalized to trehalose shift) (SA surface [4]; SA shift 2 nm surface): 1.27 nm
FBS 10% binding to SA surface (shift normalized to trehalose shift) (SA surface [4]; SA shift 5.8 nm surface): 0.62 nm
FBS 100% binding to SA surface (shift normalized to trehalose shift) (SA surface [4]; SA shift 5.8 nm surface): 0.07 nm
Blocker shift 5% Trehalose ([5]; aldehyde surface (no streptavidin)): 2.91 nm
Blocker shift 5% Trehalose ([5]; wells immobilized with 0.05 mg/mL SA): 2.96 nm
Blocker shift 5% Trehalose ([5]; wells immobilized with 0.2 mg/mL SA): 2.19 nm

Compound: O=C(O)CCCC[C@@H]1SC[C@@H]2NC(=O)N[C@@H]21 [Biotin]
theoretical shift resulting from Biotin binding (in parenthesis) (SA surface [3]; (244/55000) x 4 binding sites x 5.8 nm SA shift): 0.104 nm
shift from biotin binding to SA surface (SA surface [3]; biotin in FBS 10%, 5% Trehalose): 0.09 nm
shift from biotin binding to SA surface (SA surface [3]; biotin in FBS 10%, No Trehalose): 0.08 nm
shift from biotin binding to SA surface (SA surface [3]; biotin in FBS 100%, 5% Trehalose): 0.1 nm
shift from biotin binding to SA surface (SA surface [3]; biotin in FBS 100%, No Trehalose): 0.12 nm

Now from value to compound:

PWV shift of CBS binding to CA (Carbonic Anhydrase (CA); CBS 0.05 μM): 0.000 nm
PWV shift of CBS binding to CA (Carbonic Anhydrase (CA); CBS 0.10 μM): 0.001 nm
PWV shift of CBS binding to CA (Carbonic Anhydrase (CA); CBS 0.20 μM): 0.003 nm
PWV shift of CBS binding to CA (Carbonic Anhydrase (CA); CBS 0.39 μM): 0.005 nm
PWV shift of CBS binding to CA (Carbonic Anhydrase (CA); CBS 0.78 μM): 0.010 nm
PWV shift of CBS binding to CA (Carbonic Anhydrase (CA); CBS 1.56 μM): 0.020 nm
PWV shift of CBS binding to CA (Carbonic Anhydrase (CA); CBS 3.13 μM): 0.037 nm
PWV shift of CBS binding to CA (Carbonic Anhydrase (CA); CBS 6.25 μM): 0.045 nm
PWV shift of CBS binding to CA (Carbonic Anhydrase (CA); CBS 12.50 μM): 0.054 nm
PWV shift of CBS binding to CA (Carbonic Anhydrase (CA); CBS 25.00 μM): 0.054 nm
PWV shift of CBS binding to CA (Carbonic Anhydrase (CA); CBS 50.00 μM): 0.062 nm
Compound: NS(=O)(=O)C(=O)O [CBS, Carboxysulfonamide]

PWV change after 2 hr incubation and wash ([1]; 2.5% solution in water): 1.75 nm
PWV change after over night incubation and wash ([1]; 2.5% solution in water): 1.72 nm
Compound: O=CC(O)CO (stereo not shown) [Glyceraldehydes, glyceraldehyde]

PWV change after 2 hr incubation and wash ([1]; 5% solution in water): 4.86 nm
PWV change after over night incubation and wash ([1]; 5% solution in water): 4.82 nm
Compound: OC[C@H]1O[C@@H](O[C@H]2[C@H](O)[C@@H](O)C(O)O[C@@H]2CO)[C@H](O)[C@@H](O)[C@H]1O (stereo partly shown) [Lactose]

SA shift ([2]; 0.05 mg/mL SA during immobilization): 2.00 Nm
SA shift ([2]; 0.2 mg/mL SA during immobilization): 5.81 Nm
Compound: streptavidin [SA]

Reference: US20080213910A1, “METHOD FOR BLOCKING NON-SPECIFIC PROTEIN BINDING ON A FUNCTIONALIZED SURFACE” (priority 2006, published 2008)
